Experimental data published in US7875602B2 (priority 2005, dated 2011).
Where a name gives a salt, the structure may show the parent alone.

What was measured:
[1] = tested on: PC-3 human prostate cancer cells; assay: In vitro chemoradiosensitization, cell colony count; type: cell-based; conditions: for radiosensitivity of the cancer cell after prior exposure: 5 nM, 2 h exposure before X-rays; for Survival (%): Radiation + compound at 5 nM, 2 h drug exposure
Protocol: Chemoradiosensitizing effects of compound 13, compound 10, and compound 20 on human cancer cells were evaluated at a dose of 5 nM. PC-3 human prostate cancer cells were plated on petri dishes in triplicates were allowed to attach. After irradiation, cells were rinsed with HBSS (Hank's balanced salt solution), and covered with fresh media. Cells were cultured for 8-9 days in a 37° C. incubator. The resulting cell colonies were stained and counted. […] Other compounds of this invention can similarly be evaluated in accordance with this method.

[2] = tested on: MTG-B mouse mammary adenocarcinoma tumors; assay: In vivo chemoradiosensitization in tumor-bearing mice; design: species or system C3H/HeN mice; conditions: single i.p. injection at MTD
Protocol: To determine whether the pronounced effects of compound 13 in tissue culture could be duplicated in solid tumors, in vivo chemoradiosensitization studies were performed on C3H/HeN mice bearing MTG-B mouse mammary adenocarcinoma tumors. Prior to treatment, the tumor grew exponentially following implantation into the flanks of the mice and reached a diameter of 8 mm (268.08 cu. mm) by day 7 to 10. The mice were injected i.p. with compound 13 at MTD using a single injection and then irradiated with a radiation dose of 22 Gy 24 h after the injection. Control groups of mice bearing 8 mm diameter tumors were treated with vehicle alone, or radiation alone, or drug alone. After treatment, tumor sizes were measured by caliper every day. Daily measurement of the tumor diameters (d1, d2) in two orthogonal directions were used to calculate the tumor volume (tumor volume=π/6{(d1+d2)/2}^3) using the approximation that the tumors were spherical (results shown in FIG. 1). The values of time (days) required to grow the tumor to twice their initial size after various treatments were calculated as tumor doubling time (TDT) (±SE) for evaluating the treatment effects. Survival times and curative effects after treatment were also be observed and recorded. Other compounds of this invention can similarly be evaluated in accordance with this method.

[3] = tested on: DMS-14 small lung cancer cells; assay: In vitro chemoradiosensitization, cell colony count; type: cell-based, human; conditions: for Survival (%): Radiation + compound at 5 nM, 2 h drug exposure
Protocol: Chemoradiosensitizing effects of compound 13 on human cancer cells were evaluated at a dose of 5 nM. DMS-14 small lung cancer cells were plated on petri dishes in triplicates were allowed to attach. After irradiation, cells were rinsed with HBSS (Hank's balanced salt solution), and covered with fresh media. Cells were cultured for 8-9 days in a 37° C. incubator. The resulting cell colonies were stained and counted. […] Other compounds of this invention can similarly be evaluated in accordance with this method.

[4] = Acute toxicity, MTD40 (maximum tolerated dose at day 40); type: in vivo, C3H/HeN mice; conditions: i.p. injection, mice checked daily for 45 days; values only in FIG. 3
Protocol: Drugs were dissolved in cremophor:alcohol (1:1) and diluted in saline to a 5% cremophor, 5% alcohol, 90% saline for i.p. injection.
Acute toxicities of a compound of this invention, compound 13, topotecan, CPT and cisplatin were evaluated on C3H/HeN mice (female, 6-8 week old, body weight 18-20 g). The MTD40 (maximum tolerated dose at day 40) values were determined. In the consecutive type studies, 6 mice were dosed at moderate doses of 10, 70, or 106.98, or 141.47, or 187.1 mg/kg. If no severe and irreversible toxicity (euthanasia is required) occurred at these doses, additional 6 animals were initiated at a dose which is 1.3225-1.5283 times higher than the previous non-toxic doses. Sequential dosages (261.94, or 366.72, or 500 mg/kg) were increased until severe and irreversible toxicity (whereby euthanasia is required) occurs. […] The result of this exercise was two dosages, one apparently nonlethal and the other lethal if severe and irreversible toxicity occurred and euthanasia was required. Six mice were dosed at each dosage. If no severe and irreversible toxicity occurred at the lower dosage and at least one with severe and irreversible toxicity at the higher dose, then the lower dose was considered to the MTD. […] Drug toxicity was evaluated on mice, checked daily for 45 days. […] Other compounds of this invention can similarly be evaluated in accordance with this method.

[5] = tested on: PC-3: human prostate cancer cell line; type: cell-based; conditions: for IC50: Homo sapiens, 72 h, read-out: IC50 (nM) PC-3
[6] = tested on: PC-3 human prostate cancer cells; assay: Chemotherapeutic activity, cell colony count after 24 hr drug exposure; type: cell-based; conditions: 24 hr exposure
Protocol: (§1) Chemotherapeutic effects of compound 13 on human prostate cancer cells (PC-3 and DU-145) were evaluated at dose concentrations between 0 and 10 nM. Cells plated on Petri dishes in triplicates were allowed to attach, then cells were subjected to 24 hr drug exposure at 37° C. The cells were then rinsed with HBSS ((Hank's balanced salt solution) and covered with fresh media. Cells were cultured for 8-9 days in a 37° C. incubator. The resulting cell colonies were stained and counted. Results are presented in Table 4.

[7] = tested on: DU-145 human prostate cancer cells; assay: as above; type: cell-based; conditions: 24 hr exposure
Protocol: as §1

[8] = compound plus radiation, 22 Gy 24 h after the injection

| Structure (SMILES) | melting point | radiosensitivity of the cancer cell after prior exposure [1] | Survival (%) ([1]; X-rays 0 Gy) | Survival (%) ([1]; X-rays 1 Gy) | Survival (%) ([1]; X-rays 2 Gy) | Survival (%) ([1]; X-rays 4 Gy) | IC50 [5] | further results |
| --- | --- | --- | --- | --- | --- | --- | --- | --- |
| CC[C@@]1(OC(=O)[C@@H](C)ON=C2c3cc([N+](=O)[O-])cc([N+](=O)[O-])c3-c3c2cc([N+](=O)[O-])cc3[N+](=O)[O-])C(=O)OCc2c1cc1n(c2=O)Cc2cc3c(CN(C)C)c(O)ccc3nc2-1 (as salt: hydrochloride) [Compound 10] | 210 to 213 °C (dec.) |  |  |  |  |  |  |  |
| CC[C@@]1(OC(=O)CON=C2c3cc([N+](=O)[O-])cc([N+](=O)[O-])c3-c3c2cc([N+](=O)[O-])cc3[N+](=O)[O-])C(=O)OCc2c1cc1n(c2=O)Cc2cc3c(CN(C)C)c(O)ccc3nc2-1 (as salt: hydrochloride) [Compound 16] | 210 to 215 °C (dec.) |  |  |  |  |  |  |  |
| CC[C@@]1(OC(=O)[C@@H](C)ON=C2c3cc([N+](=O)[O-])cc([N+](=O)[O-])c3-c3c2cc([N+](=O)[O-])cc3[N+](=O)[O-])C(=O)OCc2c1cc1n(c2=O)Cc2cc3c(CN(C)C)c(O)ccc3nc2-1 [Compound 10] |  | significantly increased the radiosensitivity | 100% | 90% | 66% | 21% |  |  |
| CC[C@@]1(OC(=O)[C@@H](C)ON=C2c3cc([N+](=O)[O-])cc([N+](=O)[O-])c3-c3c2cc([N+](=O)[O-])cc3[N+](=O)[O-])C(=O)OCc2c1cc1n(c2=O)Cc2cc3ccccc3nc2-1 [Compound 13] |  | significantly increased the radiosensitivity | 100% | 83% | 60% | 22% | 5 nM | Survival ([2]; compound alone): 24 days; TDT (days), tumor doubling time ([2]; compound alone): 12 days; Survival [2, 8]: 90 days; TDT (days), tumor doubling time [2, 8]: 33 days; radiosensitivity of the cancer cell after prior exposure ([3]; 5 nM, 2 h exposure before X-rays): significantly increased the radiosensitivity; Survival (%) ([3]; X-rays 0 Gy): 100%; Survival (%) ([3]; X-rays 2 Gy): 44%; Survival (%) ([3]; X-rays 4 Gy): 23%; Survival (%) ([3]; X-rays 8 Gy): 3%; toxicity compared with camptothecin and topotecan [4]: Decreased Toxicity; PC-3 Cells % Survival ([6]; drug conc. 1 nM): 98%; PC-3 Cells % Survival ([6]; drug conc. 5 nM): 52%; PC-3 Cells % Survival ([6]; drug conc. 10 nM): 10%; DU-145 Cells % Survival ([7]; drug conc. 1 nM): 82%; DU-145 Cells % Survival ([7]; drug conc. 5 nM): 43%; DU-145 Cells % Survival ([7]; drug conc. 10 nM): 5% |
| CC[C@@]1(OC(=O)[C@H](C)ON=C2c3cc([N+](=O)[O-])cc([N+](=O)[O-])c3-c3c2cc([N+](=O)[O-])cc3[N+](=O)[O-])C(=O)OCc2c1cc1n(c2=O)Cc2cc3ccccc3nc2-1 [Compound 17] |  |  |  |  |  |  | 6 nM |  |
| CC[C@@]1(OC(=O)[C@@H](C)ON=C2c3cc([N+](=O)[O-])cc([N+](=O)[O-])c3-c3c2cc([N+](=O)[O-])cc3[N+](=O)[O-])C(=O)OCc2c1cc1n(c2=O)Cc2cc3cc(O)ccc3nc2-1 [Compound 20] | 210 to 215 °C (dec.) | significantly increased the radiosensitivity | 100% | 82% | 65% | 22% | 6 nM |  |
| CC[C@@]1(O)C(=O)OCc2c1cc1n(c2=O)Cc2cc3c(CN(C)C)c(O)ccc3nc2-1 [Topotecan, (20S)-9-dimethylaminomethyl-10-hydroxy CPT, reference compound] |  |  |  |  |  |  |  | IC50 (nM) PC-3 ([5]; 72 hours drug incubation, 50% inhibition of colony formation): no effect |
